Here are results for 20 compounds from patent US20150004134A1, “TREATMENT OF CANCER WITH HETEROCYCLIC INHIBITORS OF GLUTAMINASE” (Calithera Biosciences, Inc., priority 2012, published 2015).

Molecules are shown by their SMILES. Read-outs that look alike come from different tables or passages of the source.

The test system of one test is P493-6 (myc "on") cells. The test can be described thus: Cell Proliferation Assay. The settings on record: P493-6, 72 h, read-out: Cell prolif P493 72 h IC50, P493-6 cells, 72 h. The format is cell-based. An outline of the steps: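 Read-out: either Cell Titer Glo or Guava Viacount flow analysis after 72 h compound treatment of myc-on P493-6 cells (10,000/well, RPMI with 10% FBS) at 37 °C. DMSO held at 0.5% final.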

Test [1] has as its target T1, recombinant form of Glutaminase 1 (GAC) (Homo sapiens, UniProt O94925).
T1 sequence (O94925 137-598 isoform O94925-3 limits assumed): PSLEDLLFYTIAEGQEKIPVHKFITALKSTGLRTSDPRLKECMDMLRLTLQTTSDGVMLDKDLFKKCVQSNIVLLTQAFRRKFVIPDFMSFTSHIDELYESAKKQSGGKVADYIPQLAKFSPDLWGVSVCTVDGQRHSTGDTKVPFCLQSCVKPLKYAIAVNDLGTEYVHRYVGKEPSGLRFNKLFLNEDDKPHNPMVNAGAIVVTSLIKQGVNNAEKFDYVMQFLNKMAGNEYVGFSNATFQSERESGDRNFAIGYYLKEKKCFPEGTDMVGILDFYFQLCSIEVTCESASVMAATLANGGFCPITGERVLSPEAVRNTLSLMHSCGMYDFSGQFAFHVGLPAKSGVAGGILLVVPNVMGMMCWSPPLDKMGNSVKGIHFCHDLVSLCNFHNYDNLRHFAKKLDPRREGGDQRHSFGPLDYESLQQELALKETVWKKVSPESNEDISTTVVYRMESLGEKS
The test can be described thus: Recombinant Enzyme Assay - Time Dependence (60 min preincubation). The format is biochemical. An outline of the steps: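 Enzyme and compound preincubated 60 min at 20° C; reaction started with substrate buffer (50 mM Tris-HCl pH 8.0, 150 mM K2HPO4, 1 mM DTT, 20 mM L-glutamine, 2 mM NAD^+). NADH formation followed at 340 nm in kinetic mode for 15 min at 20° C; slopes (mAU/min) compared with DMSO and control-compound wells.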

The mark [2] stands for this setting: read-out: GAC Delta N2 IC50 60 min preinc.

`COc1cccc(CC(=O)Nc2ccc(CCCCc3nnc(NC(=O)Cc4cccc(OC(F)(F)F)c4)s3)nn2)c1` [Compound 617]: the figures for the IC50 (with P493-6 (myc "on") cells; in test [1] (setting [2])) were 40 nM and 5 nM, respectively.

As to `O=C(Cc1ccccc1)Nc1ccc(CCCCc2nnc(NC(=O)Cc3cccc(Oc4ccccc4)c3)s2)nn1` [Compound 450], the IC50 in the test with P493-6 (myc "on") cells came to 42 nM; in test [1] (setting [2]), 6 nM.

As to `O=C(CC(O)C(F)(F)F)NCc1cccc(CC(=O)Nc2nnc(CCCCc3ccc(NC(=O)Cc4ccccc4)nn3)s2)c1` (stereo not shown) [Compound 578], the IC50 came out at 22 nM in the test on P493-6 (myc "on") cells and 4 nM in test [1] (setting [2]).

Take `CCOC(=O)NCc1cccc(CC(=O)Nc2ccc(CCCCc3nnc(NC(=O)C(C)c4ccccc4)s3)nn2)c1` (stereo not shown) [Compound 555]: the IC50 in the test on P493-6 (myc "on") cells was 10 nM; in test [1] (setting [2]) it was 4 nM.

Take `CC(O)c1cccc(CC(=O)Nc2ccc(CCCCc3nnc(NC(=O)C(C)c4ccccc4)s3)nn2)c1` (stereo not shown) [Compound 595]: the figures for the IC50 (in the test on P493-6 (myc "on") cells; in test [1] (setting [2])) were 59 nM and 7 nM, respectively.

Turning to `CC(C)(O)Cc1cccc(CC(=O)Nc2nnc(CCCCc3ccc(NC(=O)Cc4ccccc4)nn3)s2)c1` [Compound 513], the values for the IC50 (in the test on P493-6 (myc "on") cells; in test [1]) were 22 nM and 7 nM, respectively.

In the case of `O=C(Cc1ccccc1)Nc1ccc(CCCCc2nnc(NC(=O)Cc3ccc(F)c(Cl)c3)s2)nn1` [Compound 549], the IC50 in the test with P493-6 (myc "on") cells turned out to be 45 nM; in test [1] (setting [2]), 6 nM.

As for `O=C(Cc1ccccc1)Nc1ccc(CCCCc2nnc(NC(=O)Nc3ccccc3)s2)nn1` [Compound 419], the IC50 in the test on P493-6 (myc "on") cells worked out at 64 nM; in test [1] (setting [2]), 24 nM.

With `COc1ccccc1CC(=O)Nc1nnc(CCCCc2ccc(NC(=O)Cc3ccccc3)nn2)s1` [Compound 469], the results for the IC50 (with P493-6 (myc "on") cells; in test [1] (setting [2])) were 49 nM and 7 nM, respectively.

As for `O=C(Cc1ccccc1)Nc1ccc(CCCCc2nnc(NC(=O)Cc3cccc(CC(=O)N4CCCC4)c3)s2)nn1` [Compound 473], the IC50 in the test on P493-6 (myc "on") cells turned out to be 6 nM; in test [1] (setting [2]), 2 nM.

Take `Cc1nccn1Cc1cccc(CC(=O)Nc2ccc(CCCCc3nnc(NC(=O)Cc4ccccc4)s3)nn2)c1` [Compound 518]: the IC50 with P493-6 (myc "on") cells was found to be 63 nM; in test [1] it was 4 nM.

Turning to `NCc1ccccc1CC(=O)Nc1nnc(CCCCc2ccc(NC(=O)Cc3ccccc3)nn2)s1` [Compound 466], the IC50 in the test on P493-6 (myc "on") cells was found to be 1300 nM; in test [1] (setting [2]), 51 nM.

Regarding `CC(=O)Nc1ccc(CCCCc2nnc(NC(=O)Cc3cccc(CNC(=O)c4ccccc4)c3)s2)nn1` [Compound 460], the IC50 with P493-6 (myc "on") cells came to 31 nM; in test [1] (setting [2]) it was 5 nM.

Consider `O=C(Cc1ccccc1)Nc1ccc(CCCCc2nnc(NC(=O)Cc3cccc(CCNC(=O)c4ccccc4)c3)s2)nn1` [Compound 455], for which the IC50 with P493-6 (myc "on") cells was 12 nM; in test [1] (setting [2]), 3 nM.

Regarding `COc1cccc(CNC(=O)Nc2nnc(CCCCc3nnc(NC(=O)Cc4ccccc4)s3)s2)c1` [Compound 416], the IC50 with P493-6 (myc "on") cells turned out to be 350 nM; in test [1] (setting [2]) it was 55 nM.

Take `CCN(C)C(=O)Cc1cccc(CC(=O)Nc2nnc(CCCCc3ccc(NC(=O)Cc4ccccc4)nn3)s2)c1` [Compound 486]: the values for the IC50 (with P493-6 (myc "on") cells; in test [1] (setting [2])) were 24 nM and 4 nM, respectively.

In the case of `O=C(Cc1ccccc1)Nc1ccc(CCCCc2nnc(NC(=O)Cc3cccc(OC4COC(c5ccccc5)OC4)c3)s2)nn1` (stereo not shown) [Compound 506], the IC50 in the test on P493-6 (myc "on") cells was determined as 170 nM; in test [1] (setting [2]), 10 nM.

For the compound `CC(C)(C)OC(=O)NC(C)(C)c1cccc(CC(=O)Nc2ccc(CCCCc3nnc(NC(=O)Cc4ccccc4)s3)nn2)c1` [Compound 631], the figures for the IC50 (in the test on P493-6 (myc "on") cells; in test [1] (setting [2])) were 6 nM and 5 nM, respectively.

As to `O=C(Cc1cccc(Cl)c1)Nc1ccc(CCCCc2nnc(NC(=O)C(OC(=O)Cc3cccc(Cl)c3)c3cccc(Cl)c3)s2)nn1` (stereo not shown) [Compound 449], the IC50 in the test on P493-6 (myc "on") cells was 120 nM; in test [1] (setting [2]) it was 110 nM.

`COc1ccc(CC(=O)Nc2nnc(CCCCc3ccc(NC(=O)Cc4ccccc4)nn3)s2)cc1C` [Compound 550]: the IC50 in the test with P493-6 (myc "on") cells was found to be 36 nM; in test [1] (setting [2]), 5 nM.
